Experimental data as given in patent US12227500B2, “Substituted pyrrolo[2,3-b]pyridines for suppressing toxic endoplasmic reticulum stress” (THE TRUSTEES OF COLUMBIA UNIVERSITY IN THE CITY OF NEW YORK, priority 2018, dated 2025).

Assays:
Experiment in all cases: Radiolabeled ATP kinase assay, panel of 371 kinases (Table S6)
Format in all cases: biochemical
[1] = biological target: T1, panel of 371 human kinases (Homo sapiens, UniProt Q9UIK4); conditions: DAPK2; 0.1 μM; 10 μM ATP; read-out: % Enzyme Activity (relative to DMSO controls)
T1 construct: purchased Reaction Biology Corp
Excerpt: (§1) ; FIG. 38C). […]. Further targeted analyses, such as genetic knock-down or knock-out, may be warranted to parse the role of these additional kinases in our model of neurodegeneration.

[2] = biological target: T2, panel of 371 human kinases (Homo sapiens, UniProt Q32MK0); conditions: MYLK3; 0.1 μM; 10 μM ATP; read-out: % Enzyme Activity (relative to DMSO controls)
T2 construct: purchased Reaction Biology Corp
Excerpt: as §1

[3] = biological target: T3, panel of 371 human kinases (Homo sapiens, UniProt Q9H422); conditions: HIPK3; 0.1 μM; 10 μM ATP; read-out: % Enzyme Activity (relative to DMSO controls)
T3 construct: purchased Reaction Biology Corp
Excerpt: as §1

[4] = biological target: T4, panel of 371 human kinases (Homo sapiens, UniProt Q04771); conditions: ALK2/ACVR1; 0.1 μM; 10 μM ATP; read-out: % Enzyme Activity (relative to DMSO controls)
T4 construct: purchased Reaction Biology Corp
Excerpt: as §1

[5] = biological target: T5, panel of 371 human kinases (Homo sapiens, UniProt Q16644); conditions: MAPKAPK3; 0.1 μM; 10 μM ATP; read-out: % Enzyme Activity (relative to DMSO controls)
T5 construct: purchased Reaction Biology Corp
Excerpt: as §1

[6] = biological target: T6, panel of 371 human kinases (Homo sapiens, UniProt P31749); conditions: AKT1; 0.1 μM; 10 μM ATP; read-out: % Enzyme Activity (relative to DMSO controls)
T6 construct: purchased Reaction Biology Corp
Excerpt: as §1

[7] = biological target: T7, panel of 371 human kinases (Homo sapiens, UniProt Q9Y2H1); conditions: STK38/NDR2; 0.1 μM; 10 μM ATP; read-out: % Enzyme Activity (relative to DMSO controls)
T7 construct: purchased Reaction Biology Corp
Excerpt: as §1

[8] = biological target: T8, panel of 371 human kinases (Homo sapiens, UniProt Q9H2X6); conditions: HIPK2; 0.1 μM; 10 μM ATP; read-out: % Enzyme Activity (relative to DMSO controls)
T8 construct: purchased Reaction Biology Corp
Excerpt: as §1

[9] = biological target: T9, panel of 371 human kinases (Homo sapiens, UniProt P07947); conditions: YES/YES1; 0.1 μM; 10 μM ATP; read-out: % Enzyme Activity (relative to DMSO controls)
T9 construct: purchased Reaction Biology Corp
Excerpt: as §1

[10] = biological target: T10, panel of 371 human kinases (Homo sapiens, UniProt Q13237); conditions: PKG2/PRKG2; 0.1 μM; 10 μM ATP; read-out: % Enzyme Activity (relative to DMSO controls)
T10 construct: purchased Reaction Biology Corp
Excerpt: as §1

[11] = biological target: T11, panel of 371 human kinases (Homo sapiens, UniProt O95382); conditions: MEKK6; 0.1 μM; 10 μM ATP; read-out: % Enzyme Activity (relative to DMSO controls)
T11 construct: purchased Reaction Biology Corp
Excerpt: as §1

[12] = biological target: T12, panel of 371 human kinases (Homo sapiens, UniProt Q8N4C8); conditions: for remaining activity at 0.1 µM: MINK/MINK1, 10 μM ATP, read-out: % Enzyme Activity (relative to DMSO controls)
T12 construct: purchased Reaction Biology Corp
Excerpt: as §1

[13] = biological target: T13, panel of 371 human kinases (Homo sapiens, UniProt Q13177); conditions: PAK2; 0.1 μM; 10 μM ATP; read-out: % Enzyme Activity (relative to DMSO controls)
T13 construct: purchased Reaction Biology Corp
Excerpt: as §1

[14] = biological target: T14, panel of 371 human kinases (Homo sapiens, UniProt O43781); conditions: DYRK3; 0.1 μM; 10 μM ATP; read-out: % Enzyme Activity (relative to DMSO controls)
T14 construct: purchased Reaction Biology Corp
Excerpt: as §1

[15] = biological target: T15, panel of 371 human kinases (Homo sapiens, UniProt P09619); conditions: PDGFRb; 0.1 μM; 10 μM ATP; read-out: % Enzyme Activity (relative to DMSO controls)
T15 construct: purchased Reaction Biology Corp
Excerpt: as §1

[16] = biological target: T16, panel of 371 human kinases (Homo sapiens, UniProt Q9NY57); conditions: STK32B/YANK2; 0.1 μM; 10 μM ATP; read-out: % Enzyme Activity (relative to DMSO controls)
T16 construct: purchased Reaction Biology Corp
Excerpt: as §1

[17] = biological target: T17, panel of 371 human kinases (Homo sapiens, UniProt P36896); conditions: ALK4/ACVR1B; 0.1 μM; 10 μM ATP; read-out: % Enzyme Activity (relative to DMSO controls)
T17 construct: purchased Reaction Biology Corp
Excerpt: as §1

[18] = biological target: T18, panel of 371 human kinases (Homo sapiens, UniProt Q05397); conditions: FAK/PTK2; 0.1 μM; 10 μM ATP; read-out: % Enzyme Activity (relative to DMSO controls)
T18 construct: purchased Reaction Biology Corp
Excerpt: as §1

[19] = biological target: T19, panel of 371 human kinases (Homo sapiens, UniProt P07332); conditions: FES/FPS; 0.1 μM; 10 μM ATP; read-out: % Enzyme Activity (relative to DMSO controls)
T19 construct: purchased Reaction Biology Corp
Excerpt: as §1

[20] = biological target: T20, panel of 371 human kinases (Homo sapiens, UniProt Q92630); conditions: DYRK2; 0.1 μM; 10 μM ATP; read-out: % Enzyme Activity (relative to DMSO controls)
T20 construct: purchased Reaction Biology Corp
Excerpt: as §1

[21] = biological target: T21, panel of 371 human kinases (Homo sapiens, UniProt Q6IQ55); conditions: TTBK2; 0.1 μM; 10 μM ATP; read-out: % Enzyme Activity (relative to DMSO controls)
T21 construct: purchased Reaction Biology Corp
Excerpt: as §1

[22] = biological target: T22, panel of 371 human kinases (Homo sapiens, UniProt Q96SB4); conditions: SRPK1; 0.1 μM; 10 μM ATP; read-out: % Enzyme Activity (relative to DMSO controls)
T22 construct: purchased Reaction Biology Corp
Excerpt: as §1

[23] = biological target: T23, panel of 371 human kinases (Homo sapiens, UniProt Q13554); conditions: CAMK2b; 0.1 μM; 10 μM ATP; read-out: % Enzyme Activity (relative to DMSO controls)
T23 construct: purchased Reaction Biology Corp
Excerpt: as §1

[24] = biological target: T24, panel of 371 human kinases (Homo sapiens, UniProt O14920); conditions: IKKb/IKBKE; 0.1 μM; 10 μM ATP; read-out: % Enzyme Activity (relative to DMSO controls)
T24 construct: purchased Reaction Biology Corp
Excerpt: as §1

T12 sequence (Q8N4C8 whole entry): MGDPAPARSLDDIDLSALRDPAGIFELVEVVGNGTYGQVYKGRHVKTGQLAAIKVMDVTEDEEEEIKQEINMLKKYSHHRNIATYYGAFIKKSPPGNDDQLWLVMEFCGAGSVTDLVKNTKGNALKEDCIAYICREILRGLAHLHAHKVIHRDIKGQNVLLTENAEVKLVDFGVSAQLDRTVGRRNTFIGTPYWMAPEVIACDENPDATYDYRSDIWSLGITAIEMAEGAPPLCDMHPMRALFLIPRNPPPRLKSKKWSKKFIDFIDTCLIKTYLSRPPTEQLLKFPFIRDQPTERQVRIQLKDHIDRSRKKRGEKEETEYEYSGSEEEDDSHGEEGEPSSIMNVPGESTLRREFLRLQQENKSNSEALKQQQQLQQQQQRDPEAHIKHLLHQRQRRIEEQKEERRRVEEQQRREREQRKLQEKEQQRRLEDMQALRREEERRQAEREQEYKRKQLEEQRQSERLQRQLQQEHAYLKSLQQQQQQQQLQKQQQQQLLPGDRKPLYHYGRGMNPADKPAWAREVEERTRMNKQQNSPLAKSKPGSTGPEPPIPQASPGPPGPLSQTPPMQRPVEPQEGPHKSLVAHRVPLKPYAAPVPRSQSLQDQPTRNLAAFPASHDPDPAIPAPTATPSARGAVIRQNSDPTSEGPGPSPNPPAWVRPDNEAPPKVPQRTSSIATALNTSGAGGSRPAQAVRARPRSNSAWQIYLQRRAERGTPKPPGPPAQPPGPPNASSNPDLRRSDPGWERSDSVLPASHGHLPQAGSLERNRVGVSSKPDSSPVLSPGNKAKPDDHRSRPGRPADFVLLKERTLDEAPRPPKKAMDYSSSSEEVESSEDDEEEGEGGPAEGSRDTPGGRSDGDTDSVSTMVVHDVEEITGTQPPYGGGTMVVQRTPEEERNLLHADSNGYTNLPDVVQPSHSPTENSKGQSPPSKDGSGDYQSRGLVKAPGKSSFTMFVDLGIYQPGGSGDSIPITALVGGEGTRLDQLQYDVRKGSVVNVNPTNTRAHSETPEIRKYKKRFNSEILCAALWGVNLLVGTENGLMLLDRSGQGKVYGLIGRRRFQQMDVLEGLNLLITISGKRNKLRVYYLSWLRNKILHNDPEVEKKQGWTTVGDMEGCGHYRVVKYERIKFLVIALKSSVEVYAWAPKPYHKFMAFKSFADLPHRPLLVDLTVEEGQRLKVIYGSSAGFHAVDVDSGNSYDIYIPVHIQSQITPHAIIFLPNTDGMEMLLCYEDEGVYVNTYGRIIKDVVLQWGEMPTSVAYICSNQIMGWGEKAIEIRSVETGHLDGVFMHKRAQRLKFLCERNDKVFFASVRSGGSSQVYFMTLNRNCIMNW
T15 sequence (P09619 33-1106): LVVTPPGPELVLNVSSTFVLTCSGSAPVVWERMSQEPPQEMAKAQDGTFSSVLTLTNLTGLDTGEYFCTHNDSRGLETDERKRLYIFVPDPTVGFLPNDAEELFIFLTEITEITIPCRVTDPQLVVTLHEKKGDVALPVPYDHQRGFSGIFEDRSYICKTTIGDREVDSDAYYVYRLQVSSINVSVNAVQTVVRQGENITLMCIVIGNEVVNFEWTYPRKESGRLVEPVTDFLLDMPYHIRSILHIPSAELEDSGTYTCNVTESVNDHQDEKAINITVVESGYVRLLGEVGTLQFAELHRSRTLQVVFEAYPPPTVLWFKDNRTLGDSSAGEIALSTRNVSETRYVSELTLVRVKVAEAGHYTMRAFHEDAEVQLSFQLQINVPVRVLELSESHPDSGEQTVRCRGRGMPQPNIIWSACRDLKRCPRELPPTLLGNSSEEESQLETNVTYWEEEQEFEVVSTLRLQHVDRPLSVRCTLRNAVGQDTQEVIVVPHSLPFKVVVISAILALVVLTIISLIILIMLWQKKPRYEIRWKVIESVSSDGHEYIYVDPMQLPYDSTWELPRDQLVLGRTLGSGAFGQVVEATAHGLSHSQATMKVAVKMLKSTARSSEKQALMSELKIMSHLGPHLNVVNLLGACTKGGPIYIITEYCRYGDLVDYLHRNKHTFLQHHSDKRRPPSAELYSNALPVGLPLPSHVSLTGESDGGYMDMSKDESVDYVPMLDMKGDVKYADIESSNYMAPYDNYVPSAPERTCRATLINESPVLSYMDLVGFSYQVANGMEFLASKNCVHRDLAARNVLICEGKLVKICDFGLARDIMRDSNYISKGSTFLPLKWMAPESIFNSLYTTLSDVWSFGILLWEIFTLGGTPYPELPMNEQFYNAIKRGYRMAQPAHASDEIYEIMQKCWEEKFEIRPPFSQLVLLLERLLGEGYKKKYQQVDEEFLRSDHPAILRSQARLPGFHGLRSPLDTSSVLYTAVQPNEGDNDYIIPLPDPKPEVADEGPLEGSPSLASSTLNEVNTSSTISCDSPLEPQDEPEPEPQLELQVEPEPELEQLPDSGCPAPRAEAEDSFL
T5 sequence (Q16644 whole entry): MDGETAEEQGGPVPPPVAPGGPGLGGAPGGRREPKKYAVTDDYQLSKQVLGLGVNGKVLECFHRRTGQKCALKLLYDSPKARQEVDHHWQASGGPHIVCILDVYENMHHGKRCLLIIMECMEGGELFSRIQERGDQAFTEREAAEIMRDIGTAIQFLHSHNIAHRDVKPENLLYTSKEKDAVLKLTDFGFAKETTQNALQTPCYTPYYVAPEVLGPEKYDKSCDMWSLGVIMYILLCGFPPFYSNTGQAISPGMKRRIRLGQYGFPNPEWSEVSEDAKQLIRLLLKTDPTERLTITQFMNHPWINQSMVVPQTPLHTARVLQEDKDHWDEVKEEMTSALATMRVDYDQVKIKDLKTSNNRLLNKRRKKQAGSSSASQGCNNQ
T18 sequence (Q05397 whole entry): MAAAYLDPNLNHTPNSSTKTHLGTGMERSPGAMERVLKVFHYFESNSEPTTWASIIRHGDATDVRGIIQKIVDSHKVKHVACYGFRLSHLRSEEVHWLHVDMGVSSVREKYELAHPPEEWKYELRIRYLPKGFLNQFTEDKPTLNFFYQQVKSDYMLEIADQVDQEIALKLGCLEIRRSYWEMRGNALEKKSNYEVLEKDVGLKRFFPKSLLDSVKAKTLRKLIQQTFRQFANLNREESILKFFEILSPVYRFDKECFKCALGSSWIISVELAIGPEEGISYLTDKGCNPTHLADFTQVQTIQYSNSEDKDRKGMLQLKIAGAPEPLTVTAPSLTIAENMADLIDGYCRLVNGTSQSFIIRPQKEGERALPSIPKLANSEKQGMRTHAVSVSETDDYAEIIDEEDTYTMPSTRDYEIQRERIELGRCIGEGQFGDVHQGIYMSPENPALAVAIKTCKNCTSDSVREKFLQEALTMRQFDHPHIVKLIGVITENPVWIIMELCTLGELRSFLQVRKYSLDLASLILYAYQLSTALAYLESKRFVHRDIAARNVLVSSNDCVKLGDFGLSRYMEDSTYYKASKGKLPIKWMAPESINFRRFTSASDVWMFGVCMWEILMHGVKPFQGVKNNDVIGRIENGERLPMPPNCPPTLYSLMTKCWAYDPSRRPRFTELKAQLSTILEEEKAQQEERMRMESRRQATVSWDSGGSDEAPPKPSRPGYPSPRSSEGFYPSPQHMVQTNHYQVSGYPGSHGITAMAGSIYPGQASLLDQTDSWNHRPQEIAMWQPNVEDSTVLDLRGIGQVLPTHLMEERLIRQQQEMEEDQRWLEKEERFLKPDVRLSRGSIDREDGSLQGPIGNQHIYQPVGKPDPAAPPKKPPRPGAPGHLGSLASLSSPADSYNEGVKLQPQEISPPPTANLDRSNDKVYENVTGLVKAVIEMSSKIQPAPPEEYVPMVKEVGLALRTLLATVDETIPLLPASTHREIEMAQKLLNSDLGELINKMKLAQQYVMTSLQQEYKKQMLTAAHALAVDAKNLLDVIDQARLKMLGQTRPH
T10 sequence (Q13237 whole entry): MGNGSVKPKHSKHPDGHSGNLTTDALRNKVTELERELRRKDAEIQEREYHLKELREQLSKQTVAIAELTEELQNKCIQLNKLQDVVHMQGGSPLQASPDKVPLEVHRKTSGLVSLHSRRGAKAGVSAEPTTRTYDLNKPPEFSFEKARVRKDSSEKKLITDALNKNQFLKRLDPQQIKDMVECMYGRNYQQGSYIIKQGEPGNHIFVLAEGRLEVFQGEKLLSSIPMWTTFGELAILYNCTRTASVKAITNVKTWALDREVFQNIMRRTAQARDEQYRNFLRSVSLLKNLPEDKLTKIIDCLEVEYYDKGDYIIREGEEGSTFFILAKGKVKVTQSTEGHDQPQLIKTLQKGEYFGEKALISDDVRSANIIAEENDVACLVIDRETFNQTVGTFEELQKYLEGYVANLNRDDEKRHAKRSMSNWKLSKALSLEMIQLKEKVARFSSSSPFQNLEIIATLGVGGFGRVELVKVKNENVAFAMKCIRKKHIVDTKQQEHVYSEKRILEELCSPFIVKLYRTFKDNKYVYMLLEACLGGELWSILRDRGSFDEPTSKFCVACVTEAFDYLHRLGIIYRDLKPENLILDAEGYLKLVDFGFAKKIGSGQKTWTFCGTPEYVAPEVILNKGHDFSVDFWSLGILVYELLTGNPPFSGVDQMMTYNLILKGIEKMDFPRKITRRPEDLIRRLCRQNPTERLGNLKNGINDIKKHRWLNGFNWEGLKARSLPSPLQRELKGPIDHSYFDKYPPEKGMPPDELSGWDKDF
T1 sequence (Q9UIK4 whole entry): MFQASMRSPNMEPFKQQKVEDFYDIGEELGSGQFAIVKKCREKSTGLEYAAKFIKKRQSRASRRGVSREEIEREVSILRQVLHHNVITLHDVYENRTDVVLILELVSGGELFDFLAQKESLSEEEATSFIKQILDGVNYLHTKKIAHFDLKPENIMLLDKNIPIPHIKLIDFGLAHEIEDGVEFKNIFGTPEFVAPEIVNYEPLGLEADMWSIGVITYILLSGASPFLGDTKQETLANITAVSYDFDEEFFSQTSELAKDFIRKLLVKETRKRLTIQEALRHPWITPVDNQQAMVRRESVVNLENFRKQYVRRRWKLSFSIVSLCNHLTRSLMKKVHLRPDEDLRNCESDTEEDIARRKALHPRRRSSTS

| SMILES | remaining activity at 0.1 µM [1] [%] | remaining activity at 0.1 µM [2] [%] | remaining activity at 0.1 µM [3] [%] | remaining activity at 0.1 µM [4] [%] | remaining activity at 0.1 µM [5] [%] | remaining activity at 0.1 µM [6] [%] | remaining activity at 0.1 µM [7] [%] | remaining activity at 0.1 µM [8] [%] | remaining activity at 0.1 µM [9] [%] | remaining activity at 0.1 µM [10] [%] | remaining activity at 0.1 µM [11] [%] | remaining activity at 0.1 µM [12] [%] | remaining activity at 0.1 µM [13] [%] | remaining activity at 0.1 µM [14] [%] | remaining activity at 0.1 µM [15] [%] | remaining activity at 0.1 µM [16] [%] | remaining activity at 0.1 µM [17] [%] | remaining activity at 0.1 µM [18] [%] | remaining activity at 0.1 µM [19] [%] | remaining activity at 0.1 µM [20] [%] | other results |
| --- | --- | --- | --- | --- | --- | --- | --- | --- | --- | --- | --- | --- | --- | --- | --- | --- | --- | --- | --- | --- | --- |
| CN1CCN(Cc2ccc(-c3cnc4[nH]cc(-c5ccc6[nH]ccc6c5)c4c3)cc2)CC1 [Compound 1, 3-(1H-Indol-5-yl)-5-(4-((4-methylpiperazin-1-yl)methyl)phenyl)-1H-pyrrolo[2,3-b]pyridine, reference compound] | 118 | 109 | 103 | 121 | 101 | 97 | 87.7 | 110 | 96.6 | 93.8 | 91.6 | 22.6 | 97.1 | 74.9 | 94.2 | 97 | 100 | 86.3 | 68.2 | 71.7 | remaining activity at 0.1 µM [21]: 101%; remaining activity at 0.1 µM [22]: 104%; remaining activity at 0.1 µM [23]: 95.5%; remaining activity at 0.1 µM [24]: 81.3% |
| OCCN1CCN(Cc2ccc(-c3cnc4[nH]cc(-c5cccc(Cl)c5)c4c3)cc2)CC1 [Compound 12k, 2-(4-(4-(3-(3-Chlorophenyl)-1H-pyrrolo[2,3-b]pyridin-5-yl)benzyl)piperazin-1-yl)ethan-1-ol] | 105 | 96.7 | 113 | 126 | 96.7 | 101 | 77.8 | 95.7 | 109 | 88.7 | 95 | -0.71 | 85 | 89.2 | 96.3 | 88.5 | 95.9 | 88.5 | 77.9 | 85.6 | fold change in MINK1 activity following 12k exposure relative to 1 ([12]; 0.025 μM): 22.56 fold; remaining activity at 0.1 µM [21]: 103%; remaining activity at 0.1 µM [22]: 100%; remaining activity at 0.1 µM [23]: 92.2%; remaining activity at 0.1 µM [24]: 84.1% |
